Like-named read-outs stand apart in the source and are kept apart here. Marks after values point to notes of the source that are not given here.

One experiment has as its system AgOR8/Orco. Conditions: ref 33; cited from earlier work.
The next experiment deals with OBP proteins. Conditions: ref 41; cited from earlier work.
For a further experiment, the target named is DOr85b/Orco (Drosophila melanogaster, UniProt Q9VHQ7). Conditions: cited from earlier work.
The target in experiment [1] is T1, OR71a (Drosophila melanogaster, UniProt Q9VUK5).
T1 sequence (Q9VUK5 1-378): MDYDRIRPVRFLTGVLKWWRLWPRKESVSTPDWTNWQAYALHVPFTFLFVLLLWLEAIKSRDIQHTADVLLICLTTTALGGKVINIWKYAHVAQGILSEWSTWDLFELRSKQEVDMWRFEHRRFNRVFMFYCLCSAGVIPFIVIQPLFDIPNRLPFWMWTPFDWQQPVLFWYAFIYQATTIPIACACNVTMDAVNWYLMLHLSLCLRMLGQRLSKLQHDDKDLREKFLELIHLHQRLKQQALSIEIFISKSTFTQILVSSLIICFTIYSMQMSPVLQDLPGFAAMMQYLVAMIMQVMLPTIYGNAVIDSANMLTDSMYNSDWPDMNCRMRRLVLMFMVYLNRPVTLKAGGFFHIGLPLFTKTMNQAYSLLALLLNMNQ
Kind of experiment: CNT-FET sensor covalently functionalized with Or71a nanodiscs (Example 3). The format is binding. The method, then:
The dispersion was sonicated until a clear solution was obtained. The temperature was kept at 25° C. throughout the sonication process. The thiolpyridine solution was prepared by dissolving 10 mg of 2-Mercaptopyridine (99%, Sigma Aldrich) in 1 ml of methanol. The solution was spun coated on a polydimethylsiloxane (PDMS) surface at 2000 rpm for one minute. Before the spin coating process, the PDMS surface was cleaned by a 50 W Oxygen plasma for 1 minute to improve the wettability. The cleaned substrates were placed upside down on the PDMS surface for three minutes and washed in ethanol to remove the excess thiolpyridine molecules. Then the substrates were transferred into the CNT suspension and immersed into the suspension for 10 minutes. The samples were removed from the suspension and dipped into Ethanol for another 10 minutes to remove the thiolpyridine molecules in the SWNT network. The alignment markers were deposited by defining the markers by photolithography and thermal evaporation of 5 nm Chromium and 50 nm of Gold. The metal Lift off was done by acetone immersion for 15 minutes followed by an Isopropyl alcohol (IPA) wash and N2 blow dry. The result is a uniform thin film CNT network covering the entire substrate surface. The purification procedure is a variation on the one detailed in […] et al. 2013^14. […] Purity was assessed on Coomassie stained SDS-PAGE gels and Western blotting. […]

The target of experiment [2] is T1, OR71a. Kind of experiment: EIS sensor, Or71a liposomes on gold electrode, optimized conditions (Example 5). Conditions: EIS. The format is binding.
In the next experiment the target is T2, AgOR1/Orco (Anopheles gambiae, UniProt Q8WTE7).
T2 construct: host or cells: Xenopus oocytes
Conditions: ref 33; cited from earlier work.

The subject of a further experiment is ApolOR1/Orco. Conditions: +ApolPBP2; estimated visually from graph; cited from earlier work.
For experiment [3], the system named is BmOR3/Orco. Particulars: ref 13; cited from earlier work.
The test system of experiment [4] is BmOR3/Orco. Conditions: cited from earlier work.
For the next experiment, the system named is BmOR1/Ocro. Particulars: ref 13; cited from earlier work.
Experiment [5] concerns BmOR1/Orco. Particulars: cited from earlier work.
In experiment [6] the test system is BmOr1/Orco. Particulars: cited from earlier work.
Experiment [7] has as its system EpOR3/Orco. Particulars: estimated visually from graph; cited from earlier work.
Another experiment has as its system ECB (Z) OR3/Orco. Conditions: ref 2; cited from earlier work.
Another experiment relates to OscaOR1/Orco. Particulars: cited from earlier work.
In the next experiment the test system is OnOr1/Orco. Particulars: ref 32; cited from earlier work.
For the next experiment, the system named is DiOR1/Orco. Particulars: cited from earlier work.
In another experiment the test system is SexiOR13/Orco. Particulars: ref 26; cited from earlier work.
Another experiment has as its system SexiOR16/Orco. Conditions: ref 26; cited from earlier work.
In another experiment the test system is HVOR6/Orco. Conditions: ref 31; cited from earlier work.
Another experiment has as its system MsiOR1/Orco. Particulars: cited from earlier work.
The subject of a further experiment is PxOR1/Orco. Conditions: cited from earlier work.
The subject of a further experiment is HVOR13/Orco. Conditions: ref 31; cited from earlier work.
Another experiment concerns BmOr45/Orco. Particulars: cited from earlier work.
In the next experiment the test system is BmOr47/Orco. Conditions: cited from earlier work.
In the next experiment the target is DmOr22a/Orco (Drosophila melanogaster, UniProt P81909). Particulars: cited from earlier work.
In experiment [8] the test system is AgOr65/Orco. Particulars: given as Log, cited from earlier work.
The test system of experiment [9] is AgOr65/Orco. Conditions: ref 33; cited from earlier work.
A further experiment deals with AgOr48/Orco. Particulars: given as Log, cited from earlier work.
The test system of another experiment is BdorOBP2. Conditions: ref 39; cited from earlier work.
A further experiment concerns EpOR1/Orco. Conditions: cited from earlier work.
Experiment [10] deals with EpOR3/Orco. Particulars: ref 19; cited from earlier work.
A further experiment deals with T3, AgOR2/Orco (Anopheles gambiae, UniProt Q8WTE6).
T3 construct: host or cells: Xenopus oocytes
Particulars: ref 33; cited from earlier work.

Another experiment relates to AgOr10/Orco. Particulars: ref 33; cited from earlier work.
Another experiment has as its system BmOr19/Orco. Conditions: cited from earlier work.

Chain of DmOr22a/Orco (P81909 whole entry): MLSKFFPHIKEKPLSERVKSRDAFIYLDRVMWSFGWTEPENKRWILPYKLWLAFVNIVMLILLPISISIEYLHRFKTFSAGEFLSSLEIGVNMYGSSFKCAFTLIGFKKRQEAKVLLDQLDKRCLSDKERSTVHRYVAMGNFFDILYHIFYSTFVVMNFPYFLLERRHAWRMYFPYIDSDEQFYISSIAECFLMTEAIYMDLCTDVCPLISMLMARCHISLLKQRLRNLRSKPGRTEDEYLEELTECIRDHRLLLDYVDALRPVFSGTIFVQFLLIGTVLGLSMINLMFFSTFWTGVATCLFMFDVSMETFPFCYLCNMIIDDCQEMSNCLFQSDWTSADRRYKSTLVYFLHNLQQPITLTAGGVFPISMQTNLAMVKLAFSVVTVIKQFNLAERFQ
Chain of DOr85b/Orco (Q9VHQ7 whole entry): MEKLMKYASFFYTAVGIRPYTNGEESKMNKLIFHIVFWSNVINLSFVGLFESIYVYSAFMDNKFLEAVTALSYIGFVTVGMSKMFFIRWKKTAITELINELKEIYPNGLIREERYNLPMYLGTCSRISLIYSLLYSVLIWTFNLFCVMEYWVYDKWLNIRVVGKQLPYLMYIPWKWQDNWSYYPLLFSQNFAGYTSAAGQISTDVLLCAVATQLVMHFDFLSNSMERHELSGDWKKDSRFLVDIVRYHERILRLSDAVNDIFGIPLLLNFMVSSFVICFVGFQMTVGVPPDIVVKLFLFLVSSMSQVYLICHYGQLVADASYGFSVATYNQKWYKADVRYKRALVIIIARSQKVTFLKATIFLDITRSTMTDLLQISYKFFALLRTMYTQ
Chain of DOr85b/Orco (Q9VNB5 whole entry partner): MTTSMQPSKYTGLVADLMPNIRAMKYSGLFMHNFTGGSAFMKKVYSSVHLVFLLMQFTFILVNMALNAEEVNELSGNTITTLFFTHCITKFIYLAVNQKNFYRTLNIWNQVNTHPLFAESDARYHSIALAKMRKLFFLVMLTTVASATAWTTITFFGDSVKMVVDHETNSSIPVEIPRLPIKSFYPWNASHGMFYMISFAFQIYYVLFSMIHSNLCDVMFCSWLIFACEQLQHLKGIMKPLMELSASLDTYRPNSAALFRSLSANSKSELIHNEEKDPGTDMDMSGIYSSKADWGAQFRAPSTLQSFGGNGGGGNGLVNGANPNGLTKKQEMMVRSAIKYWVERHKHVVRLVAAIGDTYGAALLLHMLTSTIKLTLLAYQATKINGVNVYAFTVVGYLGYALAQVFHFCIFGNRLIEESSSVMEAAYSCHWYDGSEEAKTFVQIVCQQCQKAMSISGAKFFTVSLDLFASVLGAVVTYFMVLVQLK
T2 sequence (Q8WTE7 whole entry): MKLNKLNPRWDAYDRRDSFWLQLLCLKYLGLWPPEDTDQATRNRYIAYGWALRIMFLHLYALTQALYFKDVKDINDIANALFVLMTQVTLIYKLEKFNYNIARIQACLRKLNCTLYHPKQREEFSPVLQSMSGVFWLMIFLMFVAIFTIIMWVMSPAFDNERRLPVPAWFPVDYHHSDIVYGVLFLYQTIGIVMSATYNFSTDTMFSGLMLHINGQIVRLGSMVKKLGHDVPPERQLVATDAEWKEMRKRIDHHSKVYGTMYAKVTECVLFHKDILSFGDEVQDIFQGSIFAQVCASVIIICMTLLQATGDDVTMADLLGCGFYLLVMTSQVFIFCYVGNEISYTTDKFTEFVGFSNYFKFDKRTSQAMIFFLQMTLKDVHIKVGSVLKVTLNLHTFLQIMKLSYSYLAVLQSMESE
T2 sequence (Q7QCC7 whole entry partner): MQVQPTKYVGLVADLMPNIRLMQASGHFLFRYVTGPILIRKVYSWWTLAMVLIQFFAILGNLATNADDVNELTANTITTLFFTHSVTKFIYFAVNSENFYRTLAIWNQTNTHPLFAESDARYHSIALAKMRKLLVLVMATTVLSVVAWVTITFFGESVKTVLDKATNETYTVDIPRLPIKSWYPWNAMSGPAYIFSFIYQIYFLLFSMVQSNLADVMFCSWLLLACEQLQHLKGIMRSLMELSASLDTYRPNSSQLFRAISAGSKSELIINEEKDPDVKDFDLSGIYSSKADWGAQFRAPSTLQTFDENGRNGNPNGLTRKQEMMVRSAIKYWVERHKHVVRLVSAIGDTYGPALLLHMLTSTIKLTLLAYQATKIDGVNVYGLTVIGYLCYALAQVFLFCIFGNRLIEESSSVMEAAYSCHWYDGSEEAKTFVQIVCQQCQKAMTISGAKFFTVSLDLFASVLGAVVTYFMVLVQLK
T3 sequence (Q8WTE6 whole entry): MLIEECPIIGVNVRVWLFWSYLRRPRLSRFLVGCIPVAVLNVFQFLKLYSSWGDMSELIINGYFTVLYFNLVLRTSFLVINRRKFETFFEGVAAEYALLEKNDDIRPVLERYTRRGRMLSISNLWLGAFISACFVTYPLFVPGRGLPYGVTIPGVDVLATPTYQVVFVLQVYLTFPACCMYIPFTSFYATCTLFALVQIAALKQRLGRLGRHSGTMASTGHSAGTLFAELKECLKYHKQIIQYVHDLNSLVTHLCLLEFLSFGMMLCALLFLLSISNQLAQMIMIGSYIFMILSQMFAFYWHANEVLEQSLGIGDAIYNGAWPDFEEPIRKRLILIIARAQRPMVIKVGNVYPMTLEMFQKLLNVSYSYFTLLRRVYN
T3 sequence (Q7QCC7 whole entry partner): as the sequence (Q7QCC7 whole entry partner) above

As for `C=CC(O)CCCCC` (stereo not shown) [1-octen-3-ol], the EC50 (commonly the midpoint of the concentration-response curve) in the experiment on AgOR8/Orco is 186 nM.

With `CCCCCC(C)=O` [2-heptanone], the “concentration that could be detected” value in the experiment with OBP proteins is 0.018 M. Further, on DOr85b/Orco (estimated visually from graph), the Sensitivity limit is given as 10^−8 − 10^−6 M*. Moreover, the EC50 at DOr85b/Orco (ref 12) was 45600 nM.

On to `CCc1ccc(OC)c(O)c1` [4-ethyl guaiacol], for which the limit of detection entry at OR71a [1] (nanodiscs 1:100 dilution) is listed as “below 1 fM”. Further, the “concentration at which clear electronic response starts” value on OR71a [1] (real time current measurement mode) was 1 fM. The same molecule gave an LOD on OR71a [2] of 0.1 fM.

With `Cc1ccc(O)cc1` [4-methylphenol], at AgOR1/Orco, the EC50 is 412 nM.

As for `CCCC/C=C\CCC/C=C/CCCCC=O` [(E,Z) -6,11-hexadecadienal], the Sensitivity limit with ApolOR1/Orco was 10^−15 M*.

`CCC/C=C\C=C\CCCCCCCCC=O` [Bombykal]: the results for the concentration for a half-maximal effect (EC50) in the experiment with BmOR3/Orco [3] and in the experiment with BmOR3/Orco [4] (ref 12) were 2030 nM and 380 nM, respectively. Moreover, the Sensitivity limit was 300 nM with BmOR3/Orco [3] and 10^−8 − 10^−6 M* in the experiment with BmOR3/Orco [4] (estimated visually from graph).

Take `CCC/C=C\C=C\CCCCCCCCCO` [Bombykol]: the half-maximal effective concentration (EC50) with BmOR1/Ocro was 4390 nM; with BmOR1/Orco [5] (ref 12), 250 nM; in the experiment on BmOr1/Orco [6] (ref 29) it was 34000 nM; with BmOr1/Orco [6] (ref 30), 5900 nM. The values for the Sensitivity limit in the experiment with BmOR1/Ocro and in the experiment on BmOR1/Orco [5] (estimated visually from graph) were 1000 nM and 10^−8 − 10^−6 M*, respectively.

On to `CC(C)=CCCC(C)=CC=O` [Citral], for which, in the experiment with EpOR3/Orco [7], the Sensitivity limit is recorded as 10^−15 M*.

As for `CC/C=C/CCCCCCCCCCOC(C)=O` [E11 pheromone], in the experiment on ECB (Z) OR3/Orco, the EC50 is 12.5 nM and the Sensitivity limit was 10^−9 M^.

As for `CC/C=C/CCCCCCCCCCO` [E11-14:OH], the Sensitivity limit with OscaOR1/Orco (estimated visually from graph) is listed as 10^−7 M*. The concentration giving a half-maximal response (EC50) in the experiment with OscaOR1/Orco (ref 27) was 1000 nM.

For the molecule `C/C=C/CCCCCCCCCCCOC(C)=O` [E12-14:OAc], in the experiment with OnOr1/Orco, the EC50 is 260 nM.

For `CCCC/C=C/CCCCCCCCCC=O` [EII-16:Ald], the Sensitivity limit with DiOR1/Orco (estimated visually from graph) is on record as 10^−7 M*. In addition, the EC50 in the experiment on DiOR1/Orco (ref 28) was 1000 nM.

Consider `C/C=C/C/C=C\CCCCCCCCOC(C)=O` [Z9, E12-14:OAc], for which the EC50 with SexiOR13/Orco was 3160 nM.

Take `CCCC/C=C\CCCCCCCCO` [Z9-14:OH]: the EC50 in the experiment on SexiOR16/Orco was 969 nM.

Regarding `CCCC/C=C\CCCCCCCC=O` [Z9-14:ald], in the experiment on HVOR6/Orco, the EC50 is 979 nM.

For `CCCC/C=C\CCCCCCCCCCOC(C)=O` [Z11-16:Ac], the Sensitivity limit in the experiment on MsiOR1/Orco (estimated visually from graph) is 10^−7 M*. Also, in the experiment on MsiOR1/Orco (ref 28), the EC50 is 1000 nM.

Consider `CCCC/C=C\CCCCCCCCCC=O` [Z11-16:Ald], for which, in the experiment on PxOR1/Orco (estimated visually from graph), the Sensitivity limit is on record as 10^−8 − 10^−6 M*. Also, the EC50 in the experiment with PxOR1/Orco (ref 12) was 2520 nM; in the experiment on HVOR13/Orco it was 979 nM.

Regarding `O=C(O)c1ccccc1` [benzoic acid], the Sensitivity limit in the experiment with BmOr45/Orco (estimated visually from graph) is 10^−11 M*; with BmOr47/Orco (estimated visually from graph), 10^−14 M*. Moreover, the results for the EC50 in the experiment on BmOr45/Orco (ref 18) and with BmOr47/Orco (ref 18) were 0.144 nM and 0.0142 nM, respectively.

Take `CCCC(=O)OCC` [ethyl butyrate]: at DmOr22a/Orco (estimated visually from graph), the Sensitivity limit is reported as 10^−12 M*. Besides, the EC50 at DmOr22a/Orco (ref 3) was 0.0158 nM.

In the case of `C=CCc1ccc(O)c(OC)c1` [eugenol], the “Ec50 (Log)” value with AgOr65/Orco [8] is “Log = −6.54”. Moreover, in the experiment with AgOr65/Orco [8] (ref 23, estimated visually from graph), the “Sensitivity limit (Log)” value is recorded as “Log = −7*”. Besides, in the experiment on AgOr65/Orco [9], the EC50 is 34.4 nM.

For the molecule `CCCCCCCCC1CCC(=O)O1` (stereo not shown) [g-dodecalactone], the “Ec50 (Log)” value with AgOr48/Orco is “Log = −7.01”. Besides, the “Sensitivity limit (Log)” value in the experiment on AgOr48/Orco (ref 25, estimated visually from graph) is given as “Log = −8*”.

For the molecule `CC(C)=CCC/C(C)=C/CO` [geraniol], the detection limit with BdorOBP2 is given as ~10^−6 M. In addition, in the experiment on EpOR1/Orco (estimated visually from graph), the Sensitivity limit is on record as 10^−14 M*. Further, the concentration for a half-maximal effect (EC50) in the experiment on EpOR1/Orco (ref 17) is 0.0018 nM.

Consider `CC(=O)OC/C=C(\C)CCC=C(C)C` [geranyl acetate], for which the EC50 in the experiment on EpOR3/Orco [10] was 1000 nM.

On to `c1ccc2[nH]ccc2c1` [indole], for which the EC50 is 16.7 nM on AgOR2/Orco and 137 nM in the experiment with AgOr10/Orco.

For the molecule `C=CC(C)(O)CCC=C(C)C` (stereo not shown) [linalool], the detection limit in the experiment on BdorOBP2 is listed as ~10^−6 M. For the same molecule, the Sensitivity limit in the experiment on BmOr19/Orco (estimated visually from graph) was 10^−10 M*. The EC50 in the experiment with BmOr19/Orco (ref 18) was 4.69 nM.
